Data from patent US20250102527A1, “METHOD AND DEVICE FOR DETERMINING THE VITAMIN STATUS” (TECHNISCHE UNIVERSITÄT MÜNCHEN, priority 2022, published 2025).
“Also recorded” adds a separate entry of the source.

Tests used:
[1] = target: T1, recombinant human PLP binding protein (PLPBP, UniProt 094903) (Homo sapiens, UniProt O94903); experiment: Gel-based labeling of recombinant PLPBP with PLxP probes (fluorescence SDS-PAGE); conditions: for labeling of recombinant PLPBP by PLP cofactor mimic: 1 μM PLPBP, 100 μM probe, 1 h r.t., NaBH4 reduction, click to Cy5, fluorescence SDS-Page
T1 construct: made in house; host or cells: E. coli Rosetta2 (DE3)
T1 sequence (O94903 whole entry): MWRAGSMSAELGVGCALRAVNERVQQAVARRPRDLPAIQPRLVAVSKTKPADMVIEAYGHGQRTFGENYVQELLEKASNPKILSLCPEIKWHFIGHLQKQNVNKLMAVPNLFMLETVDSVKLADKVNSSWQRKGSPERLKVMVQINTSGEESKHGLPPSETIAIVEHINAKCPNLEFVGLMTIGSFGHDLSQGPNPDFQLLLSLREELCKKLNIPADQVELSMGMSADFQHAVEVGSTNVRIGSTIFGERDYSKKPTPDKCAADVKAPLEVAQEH
Description: Conditions: 1 μM PLPBP, 100 μM probe (incubation 1 h, r.t.), reduction (NaBH4), precipitation (Aceton), wash (MeOH), redissolve in PBS+0.2% SDS, click to Cy5. Analysis via fluorescence SDS-Page.
Structures of the different PLP probes PL1P, PL2P and PL13P (top) that were tested for their labeling efficiency of recombinant PLP binding protein (PLPBP), separately and all three in combination on a fluorescent SDS gel (bottom). The denaturation of PLPBP via increased temperature (heat control, h.c.) prior to labeling with the combination of probes served as negative control. FM=fluorescent marker.
In brief, PLPBP (1 μM in PBS, total volume: 50 μL) was labeled with PLxP probe or mixture of PLxP probes (PL1P, PL2P, PL13P, final conc. 100 μM) at room temperature for 30 min. Upon reduction with […] NaBH4 (1 μl of 250 mM prepared fresh in 0.1 M NaOH) at room temperature for 30 min, proteins were precipitated by adding ice-cold acetone (4× volume) and incubating at −20° C. for at least 1 h. Precipitated proteins were pelletized by centrifugation (18,000×g, 15 min, 4° C.) and washed two times with ice-cold MeOH. For washing, protein pellet is resuspended in 0.2 mL cold methanol (−80° C.) by mild sonication (10 s, 10% intensity) and centrifuged (10 000 rpm, 10 min, 4° C.). Pelletized proteins were resuspended in 50 μl PBS containing […] SDS and Click chemistry was performed by adding 100 μM Cy5 azide (1 μL of 5 mM in DMSO), 100 μM TBTA (3 μL of 1.67 mM in/BuOH/DMSO 80:20), 1 mM TCEP (0.5 μL of 15 mg/mL stock in ddH2O) and 1 mM CuSO4 (1 μL of 50 mM stock in ddH2O) to each sample and incubated for at least 1 h at r.t. Samples were quenched with 2× Lämmli buffer and analysed by SDS-PAGE (12.5% polyacrylamide gels) with subsequent fluorescence scanning.
For this, we selected recombinant human PLP binding protein (PLPBP, UniProt 094903) as a medium abundant model PLP-DE of human erythrocytes.
Conditions: 1 μM PLPBP, 100 μM probe (incubation 1 h, r.t.), reduction (NaBH4), precipitation (aceton), wash (MeOH), redissolve in PBS+0.2% SDS, click to Cy5. Analysis via fluorescence SDS-Page. Results see FIG. 6.

[2] = target: T2, recombinant SHMT1 (Homo sapiens, UniProt P34896); experiment: Microarray readout of PL2P probe signal on recombinant SHMT1 preincubated with PLP; assay type: binding; conditions: apoSHMT1 preincubated with 0.5-4.0 eq PLP, fixed with NaBH4, 100 μM PL2P, click to rhodamine azide
T2 construct: made in house; host or cells: E. coli Rosetta2 (DE3)
T2 sequence (P34896 1-483): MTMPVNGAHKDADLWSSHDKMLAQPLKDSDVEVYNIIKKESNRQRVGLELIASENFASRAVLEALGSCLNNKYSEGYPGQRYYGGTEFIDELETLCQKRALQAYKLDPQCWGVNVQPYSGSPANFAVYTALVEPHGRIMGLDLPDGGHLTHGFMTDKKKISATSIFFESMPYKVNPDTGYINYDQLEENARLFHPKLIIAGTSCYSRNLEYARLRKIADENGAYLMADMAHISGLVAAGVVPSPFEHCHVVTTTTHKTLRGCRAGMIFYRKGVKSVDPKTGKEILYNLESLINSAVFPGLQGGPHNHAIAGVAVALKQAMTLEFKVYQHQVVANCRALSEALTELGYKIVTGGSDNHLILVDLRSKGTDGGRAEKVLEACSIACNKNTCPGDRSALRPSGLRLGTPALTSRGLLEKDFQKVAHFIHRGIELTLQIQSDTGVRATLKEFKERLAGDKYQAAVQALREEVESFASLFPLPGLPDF
Description: FIG. 11. Signal intensity is dependent on saturation level of PLP-DE with PLP. • (A) PLP loading states of recombinant SHMT1 incubated with increasing equivalents (eq) of PLP were determined by intact protein-MS (n=3) as described previously (Hoegl et al., 2018). • (B) Microarray read out of recombinant SHMT1 bound PL2P probe signals preincubated with PLP equivalents in a physiological range of 0.5-4.0 eq. Mean signal intensities of anti-SHMT1 (n=8) corrected to BSA control and error bars (SD) after fluorescent readout of anti-SHMT1 3. Sample preparation according to workflow 3, as described in the Examples.
40 μM apoSHMT1 (25 μL) samples were incubated with increasing amounts of PLP (0 eq., 0.50 eq., 1.00 eq., 4.00 eq., 32.0 eq.) for 1 h at r.t. and subsequently treated with 20 mM NaBH4 (250 mM stock solution in 0.1 M NaOH) for 30 min at r.t. Reduction was quenched by adding cold acetone (4× volume of sample, −20° C.) for at least 1 h. Precipitated proteins were pelletized (10 000 rpm, 15 min, 4° C.) and supernatant was discarded. […] Samples are subsequently incubated and analysed on the microarrays. […]
The samples were analysed in a single colour approach (without secondary antibody incubation) or dual-colour approach (with secondary antibody incubation) using custom microarrays containing antibodies against OAT, SHMT and PLPBP or a subset of these antibodies. […]

labeling of recombinant PLPBP by PLP cofactor mimic [1]	most suitable PLP cofactor mimic for labeling of recombinant PLPBP ([1]; comparison of PL1P, PL2P, PL13P via SDS-Page)	Molecule	PL2P probe signal intensity on microarray with increasing PLP saturation of SHMT1 [2]
successfully tested	most suitable	(6-(but-3-yn-1-yl)-4-formyl-5-hydroxypyridin-3-yl)methyl phosphate [PL2P]	
		Cc1ncc(COP(=O)(O)O)c(C=O)c1O [PLP, pyridoxal phosphate]	decrease in signal intensity; also recorded: decline in signal intensity
successfully tested		(4-formyl-6-methyl-5-(prop-2-yn-1-yloxy)pyridin-3-yl)methyl phosphate [PL13P]	
successfully tested		C#Cc1ncc(COP(=O)(O)O)c(C=O)c1O [PL1P, (6-ethynyl-4-formyl-5-hydroxypyridin-3-yl)methyl phosphate]	
